Measurements: patent US11767341B2, “Lincosamide antibiotics and uses thereof” (President and Fellows of Harvard College, priority 2017, dated 2023)
Converted amounts (≈) assume the structure as drawn. Where two headings read alike, the source gives them in different places.

Legend:
Test in all cases: MIC determination
Format in all cases: cell-based
S. aureus ATCC 29213 = conditions: Staphylococcus aureus
S. aureus BAA 977 iErmA = conditions: Staphylococcus aureus, BAA977
[1] = tested on: S. aureus MP-549 msr(a) USA 300; conditions: Staphylococcus aureus, USA300, S. aureus MP-549 msr(a) USA 300
S. aureus MMX 3035 cErmA = conditions: Staphylococcus aureus, MMX3035CERMA
S. pneumoniae ATCC 49619 = conditions: Streptococcus pneumoniae, ATCC49619
[2] = tested on: S. pneumoniae MMX 3028 cErmB; conditions: Streptococcus pneumoniae, MMX3028CERMB; S. pneumoniae MMX 3028 cErmB; read-out: MIC
[3] = tested on: S. pneumoniae MMX 3031 cMefA; conditions: Streptococcus pneumoniae, MMX3031CMEFA
S. pyogenes ATCC 19615 = conditions: Streptococcus pyogenes, ATCC19615; S. pyogenes ATCC 19615; read-out: MIC
[4] = tested on: S. pyogenes MMX 946 Macrolide-Resistant; conditions: Streptococcus pyogenes, read-out: MIC
E. faecalis ATCC 29212 = conditions: Enterococcus faecalis
[5] = tested on: E. faecalis MMX 847 Macrolide-Resistant; conditions: Enterococcus faecalis, read-out: MIC
K. pneumoniae ATCC 10031 = conditions: Klebsiella pneumoniae, ATCC10031
E. coli ATCC 25922 = conditions: Escherichia coli
E. coli MP-9 ΔTolC = conditions: Escherichia coli
P. aeruginosa ATCC 27853 = conditions: Pseudomonas aeruginosa, ATCC27853; P. aeruginosa ATCC 27853; read-out: MIC
C. difficile BAA 1805 = conditions: Clostridioides difficile, BAA1805
[6] = tested on: E. coli MP-74 LptD mutant; conditions: Escherichia coli
H. influenzae ATCC 49247 = conditions: Haemophilus influenzae, ATCC49247
[7] = ATCC29213, S. aureus ATCC 29213, read-out: MIC
[8] = S. pneumoniae ATCC 49619, read-out: MIC
[9] = K. pneumoniae ATCC 10031, read-out: MIC
[10] = ATCC25922, E. coli ATCC 25922, read-out: MIC
[11] = S. aureus MMX 3035 cErmA, read-out: MIC

Structure (SMILES)	MIC (S. aureus ATCC 29213; [7]) [µg/mL]	MIC (S. aureus BAA 977 iErmA) [µg/mL]	MIC [1] [µg/mL]	MIC (S. pneumoniae ATCC 49619; [8]) [µg/mL]	MIC [2] [µg/mL]	MIC [3] [µg/mL]	MIC (S. pyogenes ATCC 19615) [µg/mL]	MIC (E. faecalis ATCC 29212; ATCC29212, read-out: MIC) [µg/mL]	MIC (K. pneumoniae ATCC 10031; [9]) [µg/mL]	MIC (E. coli ATCC 25922; [10]) [µg/mL]	MIC (E. coli MP-9 ΔTolC) [µg/mL]	MIC (S. aureus ATCC 29213; ATCC29213) [µg/mL]	MIC (S. pneumoniae ATCC 49619) [µg/mL]	MIC (E. faecalis ATCC 29212; ATCC29212) [µg/mL]	MIC (K. pneumoniae ATCC 10031) [µg/mL]	MIC [6] [µg/mL]	MIC (H. influenzae ATCC 49247) [µg/mL]	MIC (S. aureus MMX 3035 cErmA; [11]) [µg/mL]	MIC ([4]; S. pyogenes MMX 946 MacRes) [µg/mL]	MIC ([5]; E. faecalis MMX 847 MacRes) [µg/mL]	also measured
CSC1O[C@H]([C@H](NC(=O)[C@@H]2[C@@H]3OCC=CC[C@H]3CN2C)[C@H](C)Sc2ccc(-c3cccnc3)cc2)C(O)[C@@H](O)[C@H]1O (stereo partly drawn) [FSA-213064]	0.25 (≈ 0.415 µM)	0.25 (≈ 0.415 µM)	0.25 (≈ 0.415 µM)	≤ 0.125	8 (≈ 13.3 µM)	0.125 (≈ 0.208 µM)	≤ 0.125	32 (≈ 53.2 µM)	64 (≈ 106 µM)	> 64	16 (≈ 26.6 µM)	–	–	–	–	–	–	–	–	–	MIC (S. aureus MMX 3035 cErmA): 16 µg/mL (≈ 26.6 µM); MIC ([4]; S. pyogenes MMX 946 Macrolide-Resistant (MacRes)): 2 µg/mL (≈ 3.32 µM); MIC ([5]; E. faecalis MMX 847 Macrolide-Resistant (MacRes)): > 64 µg/mL; MIC (P. aeruginosa ATCC 27853): > 64 µg/mL
CSC1O[C@H]([C@H](NC(=O)[C@H]2NC[C@@H]3CC(N)CCO[C@H]32)[C@H](C)Cl)C(O)[C@@H](O)[C@H]1O (stereo partly drawn) [FSA-510012]	–	> 64	> 64	–	–	–	32 (≈ 70.5 µM)	–	–	–	> 64	> 64	> 64	> 64	> 64	> 64	> 64	–	–	–	MIC (C. difficile BAA 1805): > 64 µg/mL; MIC (E. coli ATCC 25922; ATCC25922): > 64 µg/mL
CNC1CCO[C@@H]2[C@H](CN[C@@H]2C(=O)N[C@H]([C@H](C)Cl)[C@H]2OC(SC)[C@H](O)[C@H](O)C2O)C1 (stereo partly drawn) [FSA-510065]	–	> 64	> 64	–	–	–	32 (≈ 68.4 µM)	–	–	–	> 64	> 64	> 64	> 64	> 64	> 64	> 64	–	–	–	MIC (C. difficile BAA 1805): > 64 µg/mL; MIC (E. coli ATCC 25922; ATCC25922): > 64 µg/mL
CSC1O[C@H]([C@H](NC(=O)[C@H]2NC[C@@H]3C[C@@H](c4cccc(F)c4)CCO[C@H]32)[C@H](C)Cl)C(O)[C@@H](O)[C@H]1O (stereo partly drawn) [FSA-511077]	0.25 (≈ 0.469 µM)	0.25 (≈ 0.469 µM)	0.25 (≈ 0.469 µM)	≤ 0.06	8 (≈ 15 µM)	≤ 0.06	≤ 0.06	0.5 (≈ 0.938 µM)	8 (≈ 15 µM)	> 64	4 (≈ 7.5 µM)	–	–	–	–	16 (≈ 30 µM)	16 (≈ 30 µM)	> 64	32 (≈ 60 µM)	64 (≈ 120 µM)	–
CSC1O[C@H]([C@H](NC(=O)[C@H]2NC[C@@H]3C[C@@H](c4ccc(F)cc4F)CCO[C@H]32)[C@H](C)Cl)C(O)[C@@H](O)[C@H]1O (stereo partly drawn) [FSA-511078]	0.25 (≈ 0.454 µM)	0.25 (≈ 0.454 µM)	0.12 (≈ 0.218 µM)	≤ 0.06	4 (≈ 7.26 µM)	≤ 0.06	≤ 0.06	0.25 (≈ 0.454 µM)	8 (≈ 14.5 µM)	> 64	2 (≈ 3.63 µM)	–	–	–	–	8 (≈ 14.5 µM)	–	> 64	16 (≈ 29 µM)	64 (≈ 116 µM)	MIC (H. influenzae ATCC 49247; H. influenzae ATCC 49247, read-out: MIC): 16 µg/mL (≈ 29 µM)
CSC1O[C@H]([C@H](NC(=O)[C@H]2NC[C@@H]3C[C@@H](c4cc(F)cc(F)c4)CCO[C@H]32)[C@H](C)Cl)C(O)[C@@H](O)[C@H]1O (stereo partly drawn) [FSA-511080]	0.12 (≈ 0.218 µM)	0.25 (≈ 0.454 µM)	0.25 (≈ 0.454 µM)	≤ 0.06	8 (≈ 14.5 µM)	≤ 0.06	≤ 0.06	0.5 (≈ 0.907 µM)	–	> 64	4 (≈ 7.26 µM)	–	–	–	16 (≈ 29 µM)	16 (≈ 29 µM)	16 (≈ 29 µM)	> 64	32 (≈ 58.1 µM)	> 64	–
